According to US9403763B2, “CD4-mimetic inhibitors of HIV-1 entry and methods of use thereof” (priority 2011, dated 2016):
“Also recorded” adds a separate entry of the source. Counter-ions that a name gives are not always drawn. Like-named read-outs stand apart in the source and are kept apart here.

Experiments:
[1] = molecular target: T1, gp120 from the YU2 strain (Human immunodeficiency virus type 1 group M subtype B, UniProt P35961); experiment: biochemical; type: binding, HIV-1
Procedure: (§1) The calorimetric cell (approximately 1.4 mL), containing gp120 from the YU2 strain dissolved in PBS (Roche Diagnostics GmbH, Mannheim, Germany), pH 7.4 with 2% DMSO, was titrated with the different inhibitors dissolved in the same buffer.
Analogue binding to full-length gp120 from the YU2 strain was next characterized by isothermal titration calorimetry to assess the enthalpic and entropic contributions to binding affinity (FIG. 7 and FIG. 3c). […] Schön, A. et al. Biochemistry 45, 10973-80 (2006). […] Schön, A. et al. Chem Biol Drug Des: 77, 161-165 (2011).
Isothermal titration calorimetric experiments were performed using a high-precision VP-ITC titration calorimetric system from MicroCal LLC. (Northampton, Mass.). The calorimetric cell (˜1.4 mL), containing gp120 at a concentration of about 2 μM dissolved in PBS, pH 7.4 (Roche Diagnostics GmbH), with 2% DMSO, was titrated with the different compounds dissolved in the same buffer at concentrations of 80-130 μM. The compound solution was added in aliquots of 10 μL at pre-set intervals. All solutions were degassed to avoid any formation of bubbles in the calorimeter during stirring. All experiments were performed at 25° C. The heat evolved upon injection of compound was obtained from the integral of the calorimetric signal. The heat associated with the binding reaction was obtained by subtracting the heat of dilution from the heat of reaction. The individual binding heats were plotted against the molar ratio, and the values for the enthalpy change (ΔH) and association constant, Ka (Kd=1/Ka), were obtained by nonlinear regression of the data.

HIV-1YU2 virus = experiment: Single-round infection of Cf2Th-CD4/CCR5 cells by luciferase-expressing HIV-1YU2 virus; type: cell-based; settings: for inhibition of entry of YU2 and ADA viruses: CD4- and CCR5-expressing cells
Procedure: as §1
(§2) Compounds were dissolved in dimethyl sulfoxide (DMSO), and stored at 10 mM concentrations at −20° C. The compounds were diluted in Dulbecco Modified Eagle Medium (DMEM, Invitrogen) to create 1 mM solutions before use. Soluble CD4 (sCD4) was purchased from ImmunoDiagnostics (Woburn, Mass.). Human 293T embryonic kidney and canine Cf2Th thymocytes (ATCC) were grown at 37° C. and 5% CO2 in DMEM (Invitrogen) containing 10% fetal bovine serum (Sigma) and 100 μg/mL of penicillin-streptomycin (Meditech, Inc.). Cf2Th cells stably expressing human CD4 and either CCR5 or CXCR4 (Babcock et al., 2001, Mirzabekov et al., 1999) were grown in medium supplemented with 0.4 mg/mL of G418 (Invitrogen) and 0.20 mg/mL of hygromycin B (Roche Diagnostics). Using the Effectene transfection reagent (Qiagen), 293T human embryonic kidney cells were cotransfected with plasmids expressing the pCMVΔP1ΔenvpA HIV-1 Gag-Pol packaging construct, the wild-type or mutant HIV-1YU2 envelope glycoproteins or the envelope glycoproteins of the control amphotropic murine leukemia virus (A-MLV), and the firefly luciferase-expressing vector at a DNA ratio of 1:1:3 μg. For the production of viruses pseudotyped with the A-MLV glycoprotein, a rev-expressing plasmid was added. The single-round, replication-defective viruses in the supernatants were harvested 24-30 hours after transfection, filtered (0.45 μm), aliquoted, and frozen at −80° C. until further use. The reverse transcriptase (RT) activities of all viruses were measured as described previously (Rho et al., 1981).
(§3) Cf2Th/CD4-CCR5 or Cf2Th/CD4-CXCR4 target cells were seeded at a density of 6×10^3 cells/well in 96-well luminometer-compatible tissue culture plates (Perkin Elmer) 24 h before infection. On the day of infection, (1 to 100 μM) was added to recombinant viruses (10,000 reverse transcriptase units) in a final volume of 50 μL and incubated at 37° C. for 30 minutes. The medium was removed from the target cells, which were then incubated with the virus-drug mixture for 2-4 hours at 37° C. At the end of this time point, complete medium was added to a final volume of 150 μL and incubated for 48 hours at 37° C. The medium was removed from each well, and the cells were lysed with 30 μL of passive lysis buffer (Promega) by three freeze-thaw cycles.

[2] = system: amphotropic murine leukemia virus (A-MLV); experiment: Specificity control: infection by virus pseudotyped with A-MLV envelope glycoproteins; type: cell-based; settings: for specificity: inhibition of A-MLV entry: either cell type
Procedure: as §1
(§4) The recombinant viruses employed were pseudotyped with HIV-1 envelope glycoproteins derived from either an X4, laboratory-adapted HXBc2 isolate, or the R5, primary YU2 isolate. As a control for specificity, the viruses were pseudotyped with the envelope glycoproteins of the amphotropic murine leukemia virus (A-MLV), an unrelated retrovirus.
as §2, §3

[3] = system: mono-tropic (HXBc2) and dual tropic (89.6 and KB9) viruses; experiment: Inhibition of entry on cells co-expressing CD4 and CXCR4; type: cell-based, HIV-1; settings: Human immunodeficiency virus 1, read-out: IC50 of entry inhibition
Procedure: as §4
Compounds were dissolved in dimethyl sulfoxide (DMSO), and stored at 10 mM concentrations at −20° C. The compounds were diluted in Dulbecco Modified Eagle Medium (DMEM, Invitrogen) to create 1 mM solutions before use. Soluble CD4 (sCD4) was purchased from ImmunoDiagnostics (Woburn, Mass.). Human 293T embryonic kidney and canine Cf2Th thymocytes (ATCC) were grown at 37° C. and 5% CO2 in DMEM (Invitrogen) containing 10% fetal bovine serum (Sigma) and 100 μg/mL of penicillin-streptomycin (Meditech, Inc.). Cf2Th cells stably expressing human CD4 and either CCR5 or CXCR4 (Babcock et al., 2001, Mirzabekov et al., 1999) were grown in medium supplemented with 0.4 mg/mL of G418 (Invitrogen) and 0.20 mg/mL of hygromycin B (Roche Diagnostics). […] The reverse transcriptase (RT) activities of all viruses were measured as described previously (Rho et al., 1981). […]

recombinant HIV-1YU2 = experiment: Activation of viral infectivity in CD4-negative Cf2Th-CCR5 cells; type: cell-based; settings: for enhancement of viral infectivity in CD4 deficient cells: YU2, CD4-negative, CCR5-expressing cells
[4] = system: clade B Env-pseudoviruses; experiment: Neutralization of Env-pseudoviruses in TZM-bl cells, clade B; type: cell-based, HIV-1; settings: for neutralization breadth: clade B
Procedure: (§5) HIV-1 Env-pseudoviruses were prepared by transfecting 293T cells with 10 μg of rev/env expression plasmid and 30 μg of an env-deficient HIV-1 backbone vector (pSG3Δenv), using Fugene 6 transfection reagents (Invitrogen). Pseudovirus-containing culture supernatants were harvested two days after transfection, filtered (0.45 μm), and stored at −80° C. or in the vapor phase of liquid nitrogen. Neutralization was measured using HIV-1 Env-pseudoviruses to infect TZM-b1 cells as described previously (Li et al., 2005; Li et al., 2006; Seaman et al., 2010; Wu et al., 2009) with minor modifications. Briefly, the test reagent (DMJ-I-228, NBD556, or CD4-Ig) were diluted in complete media containing 10% DMSO. Then 40 μL of virus was added to 10 μL of serial diluted test reagent in duplicate wells of a 96-well flat bottom culture plate, and the virus-reagent mix was incubated for 30 min at 37° C. To keep assay conditions constant, sham media containing 10% DMSO was used in place of test reagent in specified control wells. The virus input was set at a multiplicity of infection of approximately 0.01-0.1, which generally results in 100,000 to 400,000 relative light units (RLU) in a luciferase assay (Promega, Madison, Wis.). The test reagent concentrations were defined at the point of incubation with virus supernatant. Neutralization curves were fit by nonlinear regression using a 5-parameter hill slope equation as previously described (Seaman et al., 2010).
(§6) To assess further the HIV-1 neutralization breadth and potency, we assayed 1, (+)-3, (+)-4 against 42 diverse strains of clades B and C Env-pseudoviruses (data not shown).

[5] = system: clade C Env-pseudoviruses; experiment: Neutralization of Env-pseudoviruses in TZM-bl cells, clade C; type: cell-based, HIV-1; settings: for neutralization breadth: clade C
Procedure: as §5, §6

YU2 S375W virus = experiment: Viral inhibition with the cavity filling YU2 mutant S375W; type: cell-based, HIV-1
Procedure: Then, the capacity of DMJ-I-228 (10) to bind within the Phe43 cavity was assessed by measuring viral inhibition in the context of the cavity filling YU2 mutant S375W.

[6] = molecular target: T1, gp120 from the YU2 strain; design: species or system HIV-1; settings: from temperature dependence of the binding enthalpy
gp120 = gp120 (Human immunodeficiency virus type 1 group M subtype B, UniProt P35961); settings: previously reported, cited from earlier work
[7] = Human immunodeficiency virus 1, TZM-bl, read-out: IC50 GMT

For N=C(N)N[C@H]1Cc2ccccc2[C@@H]1NC(=O)C(=O)Nc1ccc(Cl)c(F)c1 [DMJ-I-228], the “binding affinity compared to TS-II-224 (2)” value ([1]; ITC) was “comparable affinity”, the “enthalpy change ΔH” value ([1]; ITC, 25° C.) was -14.9 kcal/mol and the “entropy change ΔS” value ([1]; ITC, 25° C.) was −20 cal/(K×mol). The “entropy contribution −TΔS” value ([1]; ITC, 25° C.) was -5.9 kcal/mol, the Kd ([1]; ITC, 25° C., read-out: Kd (binding affinity)) was 0.25 µM and the “inhibition of entry of YU2 and ADA viruses” value (HIV-1YU2 virus) was “inhibited the entry”. For the same compound, the “specificity: inhibition of A-MLV entry” value [2] was “did not inhibit A-MLV entry”, the IC50 [3] was 6 to 30 µM and the “enhancement of viral infectivity in CD4 deficient cells” value (recombinant HIV-1YU2) was “did not enhance viral infectivity; also recorded: did not enhance entry”. The neutralization breadth [4] was 100%, the neutralization breadth [5] was 100% and the “sensitivity of YU2 S375W virus to compound” value (YU2 S375W virus) was “completely resistant”.

In the case of O=C(Nc1ccc(Cl)c(F)c1)C(=O)N[C@H]1c2ccccc2C[C@H]1O [TK-II-52], the “specificity: inhibition of A-MLV entry” value [2] is reported as “non-specificity”.

In the case of CNC(=O)C(NC(=O)C(=O)Nc1ccc(Cl)c(F)c1)c1ccccc1 (centres unmarked), the ΔG ([1]; Example 24 table) is reported as -7.6 kcal/mol, the ΔH ([1]; Example 24 table) is reported as -9.2 kcal/mol and the “−TΔS” value ([1]; Example 24 table) is reported as “+1.6 kcal/mol”. The Kd ([1]; Example 24 table, read-out: Kd) was 2.5 µM, the IC50 (HIV-1YU2 virus; Human immunodeficiency virus 1, Cf2Th-CD4/CCR5, read-out: IC50 of HIV-1 on CD4^+ cells) was 70 µM and the IC50 ([2]; Murine leukemia virus, read-out: IC50 of A-MLV on CD4^+ cells) was 91.7 µM. The “Enhancement of viral infection of CD4− cells” value (recombinant HIV-1YU2; Example 24 table) was 0.00.

For N=C(N)N[C@@H]1Cc2ccccc2[C@H]1NC(=O)C(=O)Nc1ccc(Cl)c(F)c1 [AWS-I-169], the “binding affinity compared to TS-II-224 (2)” value ([1]; ITC) was “comparable affinity”, the “enthalpy change ΔH” value ([1]; ITC, 25° C.) was -19.4 kcal/mol and the “entropy contribution −TΔS” value ([1]; ITC, 25° C.) was -10.4 kcal/mol. For the same compound, the “inhibition of entry of YU2 and ADA viruses” value (HIV-1YU2 virus) was “inhibited the entry”, the “specificity: inhibition of A-MLV entry” value [2] was “did not inhibit A-MLV entry” and the IC50 [3] was 6 to 30 µM. For the same compound, the “enhancement of viral infectivity in CD4 deficient cells” value (recombinant HIV-1YU2) was “did not enhance viral infectivity; also recorded: did not enhance entry”, the neutralization breadth [4] was 100% and the neutralization breadth [5] was 100%. The “sensitivity of YU2 S375W virus to compound” value (YU2 S375W virus) was “completely resistant” and the “change in heat capacity” value [6] was −817±15 cal/(K×mol).

In the case of CC1(C)CC(NC(=O)C(=O)Nc2ccc(Cl)cc2)CC(C)(C)N1 [NBD-556], the enthalpy change (gp120; 25° C.) is given as -24.5 kcal/mol and the “unfavorable entropy change −TΔS, contribution to Gibbs energy” value (gp120) is given as 17.1 kcal/mol.

In the case of N[C@H]1Cc2ccccc2[C@@H]1NC(=O)C(=O)Nc1ccc(Cl)c(F)c1 [AWS-I-50], the “binding affinity compared to TS-II-224 (2)” value ([1]; ITC) is reported as “three-fold loss in affinity”, the “entropy contribution −TΔS” value ([1]; ITC, 25° C.) is reported as -7.6 kcal/mol and the “specificity: inhibition of A-MLV entry” value [2] is reported as “non-specificity”.

For O=C(Nc1ccc(Cl)c(F)c1)C(=O)N[C@@H]1c2ccccc2C[C@@H]1O [TK-II-103, N^1-(4-chloro-3-fluorophenyl)-N^2-((1R,2S)-2-hydroxy-2,3-dihydro-1H-inden-1-yl)oxalamide], the “specificity: inhibition of A-MLV entry” value [2] was “non-specificity”.

In the case of N=C(N)NC[C@H]1Cc2ccccc2[C@@H]1NC(=O)C(=O)Nc1ccc(Cl)c(F)c1 [(+)-4, (+)-N^1-(4-Chloro-3-fluorophenyl)-N^2-(trans-2-(guanidinomethyl)indan-1-yl)oxalamide formate salt], the Kd ([1]; ITC, full-length gp120, read-out: Kd) is reported as 0.11 µM, the IC50 (HIV-1YU2 virus; Human immunodeficiency virus 1, CCR5, read-out: IC50 of viral entry, YU2) is reported as 3.1 ± 0.6 µM and the IC50 [4, 7] is reported as 1.7 µM. The neutralization breadth [4] was 100%, the “improvement over (+)-3 based on IC50 titers” value ([4]; clade B viruses) was 60% and the “improvement over (+)-3 based on IC80 titers” value ([4]; clade B viruses) was 1.5 fold. For the same compound, the IC50 [5, 7] was 14 µM and the neutralization breadth [5] was 59%.

For N[C@@H]1Cc2ccccc2[C@H]1NC(=O)C(=O)Nc1ccc(Cl)c(F)c1 [AWS-I-45, N^1-((1R,2R)-2-amino-2,3-dihydro-1H-inden-1-yl)-N^2-(4-chloro-3-fluorophenyl)oxalamide], the “binding affinity compared to TS-II-224 (2)” value ([1]; ITC) was “three-fold loss in affinity” and the “specificity: inhibition of A-MLV entry” value [2] was “non-specificity”.
